25 molecules from patent US9884063B2, “Amido-substituted azole compounds” (Bayer Pharma Aktiengesellschaft, priority 2014, dated 2018) can be followed below.

The IC50 is the concentration that gives 50% inhibition.

Assay [1] deals with HEK293 FOP control reporter cell line. In words: HEK293 FOP Assay (FOP control vector luciferase reporter). Particulars: Homo sapiens; HEK293 FOP control reporter cell line, 16 hours incubation, compound dilution series 50 μM to 15 nM. The assay is classed as cell-based. The protocol: In a parallel approach, HEK293 cells were cotransfected with the FOP control vector and pcDNA3. The FOP vector is identical to the TOP construct, but it contains instead of functional TCF elements a randomized, non-functional sequence. For this transfection a stable transfected cell line was generated as well, based on selection with Geneticin (1 mg/ml).
In preparation of the assay, the two cell lines were plated 24 hrs before beginning the test at 10000 cells per well in a 384 micro titre plate (MTP) in 30 μl growth medium. […] The recombinant human Wnt-3a was thereby applied between 2500 and 5 ng/ml in two-fold dilution steps.
Selective inhibitory activity for small molecules on the wildtype Wnt pathway was determined after parallel incubation of both (TOP and FOP) HEK293 reporter cell lines with a compound dilution series from 50 μM to 15 nM in steps of 3.16-fold dilutions in CAFTY buffer (130 mM sodium chloride, 5 mM potassium chloride, 20 mM HEPES, 1 mM magnesium chloride, 5 mM sodium bicarbonate, pH 7.4) containing 2 mM Ca^2+ and 0.01% BSA.
The compounds were thereby serially prediluted in 100% DMSO and thereafter 50 fold into the CAFTY compound dilution buffer (described above).

In assay [2] the test system is wildtype Wnt signaling cascade. The experiment in a line: HEK293 TOP Assay (Super TopFlash luciferase reporter, Wnt-3a stimulated). The assay is classed as cell-based. Conditions: Homo sapiens, HEK293, 16 h, HEK293 TOP reporter cell line, Wnt-3a at EC50, 16 hours incubation, compound dilution series 50 μM to 15 nM. The method, boiled down: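 Compounds (50 μM down to 15 nM, 3.16-fold steps, in CAFTY buffer pH 7.4, 2 mM Ca2+, 0.01% BSA) tested in parallel on TOP and FOP HEK293 reporter lines to define selective wildtype Wnt inhibition. Pathway driven by recombinant human Wnt-3a applied at 2500–5 ng/ml in two-fold dilutions.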

As for `CCNC(=O)c1[nH]cnc1C(=O)Nc1ccc(NC(=O)c2ccc(F)cc2)cc1` [Example 137, N^5-ethyl-N^4-{4-[(4-fluorobenzoyl)amino]phenyl}-1H-imidazole-4,5-dicarboxamide], the 50% inhibitory concentration (IC50) is 8 µM in assay [1] and 2.35 µM in assay [2].
With `CC(C)(C)CNC(=O)c1[nH]cnc1C(=O)Nc1ccc(NC(=O)c2ccc(F)cc2)cc1` [Example 149, N^5-(2,2-dimethylpropyl)-N^4-{4-[(4-fluorobenzoyl)amino]phenyl}-1H-imidazole-4,5-dicarboxamide], the concentration for half-maximal inhibition (IC50) amounted to 22 µM in assay [1] and 5.2 µM in assay [2].
In the same order, the values of `O=C(Nc1ccc(NC(=O)c2nc[nH]c2C(=O)NCCN2CCCC(O)C2)cc1)c1ccccc1Cl` (centres unmarked) [Example 152, N^4-{4-[(2-chlorobenzoyl)amino]phenyl}-N^5-{2-[3-hydroxypiperidin-1-yl]ethyl}-1H-imidazole-4,5-dicarboxamide] are 30 µM and 0.46 µM.
In the case of `CC(C)(CN1CCCCC1)NC(=O)c1[nH]cnc1C(=O)Nc1ccc(NC(=O)c2ccc(F)cc2)cc1` [Example 156, N^4-{4-[(4-fluorobenzoyl)amino]phenyl}-N^5-[2-methyl-1-(piperidin-1-yl)propan-2-yl]-1H-imidazole-4,5-dicarboxamide], the IC50 in assay [1] was found to be 15 µM; in assay [2], 2.5 µM.
On to `CC1CCN(CC(C)(C)NC(=O)c2[nH]cnc2C(=O)Nc2ccc(NC(=O)c3ccccc3Cl)cc2)CC1` [Example 158, N^4-{4-[(2-chlorobenzoyl)amino]phenyl}-N^5-[2-methyl-1-(4-methylpiperidin-1-yl)propan-2-yl]-1H-imidazole-4,5-dicarboxamide], for which the values for the IC50 in assay [1] and in assay [2] were 29 µM and 1.2 µM, respectively.
Take `O=C(Nc1ccc(NC(=O)c2nc[nH]c2C(=O)NCCN2CCCC(O)C2)cc1)c1ccc(F)cc1` (centres unmarked) [Example 167, N^4-{4-[(4-fluorobenzoyl)amino]phenyl}-N^5-[2-(3-hydroxypiperidin-1-yl)ethyl]-1H-imidazole-4,5-dicarboxamide]: the half-maximal inhibitory concentration (IC50) in assay [1] came to 44 µM; in assay [2], 1.45 µM.
In the same order, the values of `CC1CCN(CC(C)(C)NC(=O)c2[nH]cnc2C(=O)Nc2ccc(NC(=O)c3ccc(F)cc3)cc2)CC1` [Example 175, N^4-{4-[(4-fluorobenzoyl)amino]phenyl}-N^5-[2-methyl-1-(4-methylpiperidin-1-yl)propan-2-yl]-1H-imidazole-4,5-dicarboxamide] are 27 µM and 3.5 µM.
In the same order, the values of `CN1CCN(NC(=O)c2[nH]cnc2C(=O)Nc2ccc(NC(=O)c3ccc(F)cc3Cl)cc2)CC1` [Example 177, N^4-{4-[(2-chloro-4-fluorobenzoyl)amino]phenyl}-N^5-(4-methylpiperazin-1-yl)-1H-imidazole-4,5-dicarboxamide] are 17 µM and 0.63 µM.
Turning to `CC(CNC(=O)c1[nH]cnc1C(=O)Nc1ccc(NC(=O)c2ccc(F)cc2)cc1)N1CCCCC1` (centres unmarked) [Example 183, N^4-{4-[(4-fluorobenzoyl)amino]phenyl}-N^5-[2-(piperidin-1-yl)propyl]-1H-imidazole-4,5-dicarboxamide], the IC50 in assay [1] was determined as 28 µM; in assay [2], 0.68 µM.
In the same order, the values of `CC(CNC(=O)c1[nH]cnc1C(=O)Nc1ccc(NC(=O)c2ccccc2Cl)cc1)N1CCN(C)CC1` (centres unmarked) [Example 186, N^4-{4-[(2-chlorobenzoyl)amino]phenyl}-N^5-[2-(4-methylpiperazin-1-yl)propyl]-1H-imidazole-4,5-dicarboxamide] are 28 µM and 0.42 µM.
With `CN1CCN(C(C)(C)CNC(=O)c2[nH]cnc2C(=O)Nc2ccc(NC(=O)c3ccc(F)cc3)cc2)CC1` [Example 188, N^4-{4-[(4-fluorobenzoyl)amino]phenyl}-N^5-[2-methyl-2-(4-methylpiperazin-1-yl)propyl]-1H-imidazole-4,5-dicarboxamide], the IC50 in assay [1] came out at 15 µM; in assay [2], 5.9 µM.
In the same order, the values of `CN1CCN(CC(C)(C)NC(=O)c2[nH]cnc2C(=O)Nc2ccc(NC(=O)c3ccc(F)cc3Cl)cc2)CC1` [Example 194, N^4-{4-[(2-chloro-4-fluorobenzoyl)amino]phenyl}-N^5-[2-methyl-1-(4-methylpiperazin-1-yl)propan-2-yl]-1H-imidazole-4,5-dicarboxamide] are 2.3 µM and 0.41 µM.
In the same order, the values of `CN1CCN(CC(C)(C)NC(=O)c2[nH]cnc2C(=O)Nc2ccc(NC(=O)c3ccc(F)cc3)cc2)CC1` [Example 195, N^4-{4-[(4-fluorobenzoyl)amino]phenyl}-N^5-[2-methyl-1-(4-methylpiperazin-1-yl)propan-2-yl]-1H-imidazole-4,5-dicarboxamide] are 12 µM and 1.01 µM.
Turning to `O=C(Nc1ccc(NC(=O)c2nc[nH]c2C(=O)NCCCCN2CCCCC2)cc1)c1ccc(F)cc1` [Example 201, N^4-{4-[(4-fluorobenzoyl)amino]phenyl}-N^5-[4-(piperidin-1-yl)butyl]-1H-imidazole-4,5-dicarboxamide], the concentration for half-maximal inhibition (IC50) came out at 0.03 µM in assay [1] and 4.5 µM in assay [2].
The matching figures for `CN1CCN(C(C)(C)CNC(=O)c2[nH]cnc2C(=O)Nc2ccc(NC(=O)c3ccccc3Cl)cc2)CC1` [Example 202, N^4-{4-[(2-chlorobenzoyl)amino]phenyl}-N^5-[2-methyl-2-(4-methylpiperazin-1-yl)propyl]-1H-imidazole-4,5-dicarboxamide]: 9.8 µM and 1.6 µM.
The matching figures for `CN1CCN(CC(C)(C)NC(=O)c2[nH]cnc2C(=O)Nc2ccc(NC(=O)c3ccccc3Cl)cc2)CC1` [Example 203, N^4-{4-[(2-chlorobenzoyl)amino]phenyl}-N^5-[2-methyl-1-(4-methylpiperazin-1-yl)propan-2-yl]-1H-imidazole-4,5-dicarboxamide]: 28 µM and 3.05 µM.
The matching figures for `CC1CCCN(CCNC(=O)c2[nH]cnc2C(=O)Nc2ccc(NC(=O)c3ccc(F)cc3)cc2)C1` (centres unmarked) [Example 211, N^4-{4-[(4-fluorobenzoyl)amino]phenyl}-N^5-[2-(3-methylpiperidin-1-yl)ethyl]-1H-imidazole-4,5-dicarboxamide]: 24 µM and 0.77 µM.
Regarding `O=C(Nc1ccc(NC(=O)c2nc[nH]c2C(=O)NCCCN2CCC(O)CC2)cc1)c1ccc(F)cc1Cl` [Example 275, N^4-{4-[(2-chloro-4-fluorobenzoyl)amino]phenyl}-N^5-[3-(4-hydroxypiperidin-1-yl)propyl]-1H-imidazole-4,5-dicarboxamide], the IC50 in assay [1] was determined as 9.6 µM; in assay [2] it was 0.47 µM.
In the case of `O=C(Nc1ccc(NC(=O)c2nc[nH]c2C(=O)NCCCN2CCCC2=O)cc1)c1ccc(F)cc1Cl` [Example 299, N^4-{4-[(2-chloro-4-fluorobenzoyl)amino]phenyl}-N^5-[3-(2-oxopyrrolidin-1-yl)-propyl]-1H-imidazole-4,5-dicarboxamide], the IC50 is 43 µM in assay [1] and 0.74 µM in assay [2].
`CC1CN(CCNC(=O)c2[nH]cnc2C(=O)Nc2ccc(NC(=O)c3ccccc3Cl)cc2)CC(C)O1` (centres unmarked) [Example 300, N^4-{4-[(2-chlorobenzoyl)amino]phenyl}-N^5-[2-(2,6-dimethylmorpholin-4-yl)-ethyl]-1H-imidazole-4,5-dicarboxamide]: the IC50 in assay [1] is 31 µM; in assay [2] it was 0.56 µM.
Take `CN1CCN(NC(=O)c2[nH]cnc2C(=O)Nc2ccc(NC(=O)c3ccccc3Cl)cc2)CC1` [Example 302, N^4-{4-[(2-chlorobenzoyl)amino]phenyl}-N^5-(4-methylpiperazin-1-yl)-1H-imidazole-4,5-dicarboxamide]: the IC50 in assay [1] amounted to 26 µM; in assay [2], 1.06 µM.
In the same order, the values of `CNC(=O)c1nc[nH]c1C(=O)Nc1ccc(NC(=O)c2cc(C)ccc2C)cc1` [Example 307, N^5-{4-[(2,5-dimethylbenzoyl)amino]phenyl}-N^4-methyl-1H-imidazole-4,5-dicarboxamide] are 18 µM and 1.08 µM.
With `CNC(=O)c1nc[nH]c1C(=O)Nc1ccc(NC(=O)c2cccc(C(F)(F)F)c2)cc1` [Example 314, N^4-methyl-N^5-(4-{[3-(trifluoromethyl)benzoyl]amino}phenyl)-1H-imidazole-4,5-dicarboxamide], the IC50 in assay [1] was 24 µM; in assay [2] it was 6.9 µM.
The matching figures for `CNC(=O)c1nc[nH]c1C(=O)Nc1ccc(NC(=O)c2ccc(N(C)C)cc2)cc1` [Example 315, N^5-(4-{[4-(dimethylamino)benzoyl]amino}phenyl)-N^4-methyl-1H-imidazole-4,5-dicarboxamide]: 41 µM and 14 µM.
In the same order, the values of `CNC(=O)c1nc[nH]c1C(=O)Nc1ccc(NC(=O)c2cccc(F)c2F)cc1` [Example 319, N^5-{4-[(2,3-difluorobenzoyl)amino]phenyl}-N^4-methyl-1H-imidazole-4,5-dicarboxamide] are 37 µM and 8.9 µM.
